Data reported in patent US20150191469A1, “COMPOUNDS AND METHODS FOR TREATING HIV” (priority 2012, published 2015).

System: HIV
Experiment: MT4 assay: antiviral HIV activity (cell protection, cell titer glo readout at 96 hours)
Format: cell-based
Conditions: Human immunodeficiency virus 1, MT4, 96 h, MT4 cells, cell titer glo readout at 96 hours, 10 point dose response; read-out: HIV MT4 Assay IC50
Method in brief: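 MT-4 cells infected with HIV, with inhibition readout by CellTiter-Glo luminescence at 96 h relative to no-compound control. Cytotoxicity measured in parallel under the same conditions. IC50 from a 10-point, 3-4-fold dilution series spanning >1000-fold, fitted with a four-parameter logistic equation.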

| IC50 | SMILES |
| --- | --- |
| 75 nM | Cc1nc2c(cc(-c3ccnc(N4CCCN(C5COC5)CC4)c3)n2C)c(-c2ccc3c(c2)CCCO3)c1[C@H](OC(C)(C)C)C(=O)O [Example 429] |
| 16.3 nM | Cc1nc2c(cc(-c3ccnc(N4CCCN(C5COC5)CC4)c3)n2C)c(-c2ccc3c(c2C)CCCO3)c1[C@H](OC(C)(C)C)C(=O)O [Example 430] |
| 143 nM | Cc1nc2c(cc(-c3ccnc(N4CCCN(C5COC5)CC4)c3)n2C)c(-c2ccc(Cl)cc2)c1[C@H](OC(C)(C)C)C(=O)O [Example 431] |
| 200 nM | Cc1ccc(-c2c([C@H](OC(C)(C)C)C(=O)O)c(C)nc3c2cc(-c2ccnc(N4CCCN(C5COC5)CC4)c2)n3C)cc1 [Example 432] |
| 127 nM | Cc1nc2c(cc(-c3ccnc(N4CCCN(C5COC5)CC4)c3)n2C)c(-c2cc(F)c3c(c2C)NCCO3)c1[C@H](OC(C)(C)C)C(=O)O [Example 433] |
| 51.6 nM | Cc1nc2c(cc(-c3ccnc(N4CCCN(C5COC5)CC4)c3)n2C)c(-c2ccc3c(c2C)NCCO3)c1[C@H](OC(C)(C)C)C(=O)O [Example 434] |
| 3010 nM | Cc1nc2c(cc(-c3ccnc(N4CCCN(C5COC5)CC4)c3)n2C)c(-c2ccccc2)c1[C@H](OC(C)(C)C)C(=O)O [Example 435] |
| 5.9 nM | Cc1nc2c(cc(-c3ccnc(-c4ccc5c(cnn5C)c4)c3)n2C)c(C2=CCC(C)(C)CC2)c1[C@H](OC(C)(C)C)C(=O)O [Example 436] |
| 38 nM | Cc1nc2c(cc(-c3ccnc(-c4ccc5c(cnn5C)c4)c3)n2C)c(-c2ccc(Cl)cc2O)c1[C@H](OC(C)(C)C)C(=O)O [Example 437] |
| 4.9 nM | CCO[C@H](C(=O)O)c1c(C)nc2c(cc(-c3ccnc(-c4ccc5c(cnn5C)c4)c3)n2C)c1-c1cc(F)c2c(c1C)CCCO2 [Example 438] |
| 3 nM | CCO[C@H](C(=O)O)c1c(C)nc2c(cc(-c3nnc(-c4ccc5c(cnn5C)c4)o3)n2C)c1-c1cc(F)c2c(c1C)CCCO2 [Example 439] |
| 348 nM | CCO[C@H](C(=O)O)c1c(C)nc2c(cc(-c3nnc(N4CCN(C5CCOCC5)CC4)o3)n2C)c1-c1cc(F)c2c(c1C)CCCO2 [Example 440] |
| 160 nM | Cc1nc2c(cc(-c3nnc(N4CCN(C5CCOCC5)CC4)o3)n2C)c(-c2cc(F)c3c(c2C)CCCO3)c1[C@H](OC(C)C)C(=O)O [Example 441] |
| 5.1 nM | Cc1nc2c(cc(-c3nnc(-c4ccc5c(cnn5C)c4)o3)n2C)c(-c2cc(F)c3c(c2C)CCCO3)c1[C@H](OC(C)C)C(=O)O [Example 442] |
